According to patent US20220031642A1, “Niclosamide Formulations and Methods of Use” (priority 2020, published 2022):

Tests used:
SARS-CoV-2 = experiment: microbe, parasite or virus in culture; format: cell-based; details: Severe acute respiratory syndrome coronavirus 2, Vero C1008; Vero E6 cells, reporter SARS-CoV-2 MOI of 0.1, luciferase activity 24 h post-infection; read-out: antiviral EC50
[1] = human, in vivo, po; cited from earlier work

O=C(Nc1ccc([N+](=O)[O-])cc1Cl)c1cc(Cl)ccc1O [niclosamide, Niclosamide]
EC50 (SARS-CoV-2): 150 nM | tmax (plasma levels peaked) [1]: 4 h
